This is an account of results in patent US5011851A, “Imidazole carboxylic acids and esters and inhibition of blood platelet aggregation therewith” (Bristol-Myers Squibb Co., priority 1990, dated 1991).

For this assay, the system named is ADP-induced aggregation of human platelets. In kind it is cell-based. As to conditions: human platelet rich plasma, vs ADP, read-out: Inhibition of Human Platelet Aggregation IC50 Vs ADP.

Converted amounts (≈) assume the structure as drawn. Read-outs that look alike come from different tables or passages of the source.

Experimental: IN VITRO INHIBITION OF HUMAN PLATELET AGGREGATION
The human volunteer donor's arm is cleansed with 70% ethyl alcohol. A sterile 20 ml syringe and needle are used to withdraw 20 ml of blood. The blood is immediately added to a test tube containing 3.8% sodium citrate to prevent clotting (1 part citrate to 9 parts blood).
Platelet rich plasma (PRP) was separated by centrifugation for 10 minutes at 1000 rpm (140 xg) from citrated (3.8%) human blood. All glassware used for preparation of PRP is silicon treated. ADP in final concentration of 0.5 meg/mL or 0.05 mL of a collagen suspension prepared according to the method described by Evans, G., et al., J. Exp. Med., 1968, 128, 877-894 was used to induce aggregation. The various compounds tested were dissolved in dimethylsulfoxide (DMSO) so that 5 mol added to the platelet rich plasma would yield the desired test concentration. Vehicle control trials were done and compared with aggregation induced in platelet rich plasma containing various concentrations of the test compounds. Dose response curves were obtained and Inhibitor Concentration (IC50) values calculated.

As to `COC(=O)COc1cccc(CSc2nc(-c3ccccc3)c(-c3ccccc3)[nH]2)c1` [Example 4, Methyl [3-[[(4,5-diphenyl-1H-imidazol-2-yl)thio]methyl]phenoxy]acetate], the IC50 (as a rule, the concentration needed to halve the response being measured) (Formula VIII compounds) came to 0.42 µg/mL (≈ 0.976 µM).
Consider `COC(=O)COc1cccc(CCc2nc(-c3ccccc3)c(-c3ccccc3)[nH]2)c1` [Example 1, Methyl [3-[2-(4,5-diphenyl-1H-imidazol-2-yl)ethyl]phenoxy]-acetate], for which the IC50 (Formula II compounds) was 2.4 µg/mL (≈ 5.82 µM).
As to `O=C(O)COc1cccc(CSc2nc(-c3ccccc3)c(-c3ccccc3)[nH]2)c1` [Example 5, [3-[[(4,5-Diphenyl-1H-imidazol-2-yl)thio]methyl]phenoxy]acetic Acid], the 50% inhibitory concentration (IC50) (Formula VIII compounds) worked out at 0.41 µg/mL (≈ 0.984 µM).
For `O=C(O)COc1cccc(CCc2nc(-c3ccccc3)c(-c3ccccc3)[nH]2)c1` [Example 2, [3-[2-(4,5-diphenyl-1H-imidazol-2-yl)ethyl]phenoxy]-acetic acid], the half-maximal inhibitory concentration (IC50) (Formula II compounds) was 1.2 µg/mL (≈ 3.01 µM).
